Test results reported in the SangsterLogP compilation.

Question: Which logP does the source give for `COc1ncnc2c1ncn2[C@@H]1O[C@H](COC(C)=O)[C@@H](O)[C@@H]1OC(C)=O` here?
Answer: The logP was 1.4.

Question: Which logP does the source give for `CCCC(=O)OC[C@H]1O[C@@H](n2cnc3c(OC)ncnc32)[C@@H](O)[C@@H]1OC(=O)CCC` here?
Answer: The logP was 3.67.

Question: With `COc1ncnc2c1ncn2[C@@H]1O[C@H](CO)[C@@H](OC(C)=O)[C@@H]1OC(C)=O` as the compound, how does the logP read?
Answer: The logP was 1.33.

Question: With `COc1ncnc2c1ncn2[C@@H]1O[C@H](CO)[C@@H](OC(=O)C(C)(C)C)[C@@H]1OC(=O)C(C)(C)C` as the compound, how does the logP read?
Answer: The logP was 3.61.

Question: Which logP does the source give for `COc1ccc(C(=O)OC[C@H]2O[C@@H](n3cnc4c(OC)ncnc43)[C@@H](OC(=O)c3ccc(OC)cc3)[C@@H]2O)cc1` here?
Answer: Its logP is 3.65.

Question: For `COc1ncnc2c1ncn2[C@@H]1O[C@H](COC(=O)C(C)(C)C)[C@@H](O)[C@@H]1OC(=O)C(C)(C)C`, which logP is on record?
Answer: The logP was 3.4.

Question: For `CCCCC(=O)O[C@H]1[C@H](OC(=O)CCCC)[C@@H](CO)O[C@H]1n1cnc2c(OC)ncnc21`, which logP is on record?
Answer: Its logP is 3.83.

Question: For `COc1ncnc2c1ncn2[C@@H]1O[C@H](COC(=O)COc2ccccc2)[C@@H](OC(=O)COc2ccccc2)[C@@H]1O`, which logP is on record?
Answer: The logP was 4.06.

Question: For `COc1ncnc2c1ncn2[C@@H]1O[C@H](CO)[C@@H](OC(=O)c2ccccc2)[C@@H]1OC(=O)c1ccccc1`, which logP is on record?
Answer: Its logP is 3.71.

Question: For `COc1ncnc2c1ncn2[C@@H]1O[C@H](CO)[C@@H](OC(=O)C(C)C)[C@@H]1OC(=O)C(C)C`, which logP is on record?
Answer: The logP was 2.82.

Question: Which logP does the source give for `COc1ncnc2c1ncn2[C@@H]1O[C@H](CO)[C@@H](OC(=O)Cc2ccccc2)[C@@H]1OC(=O)Cc1ccccc1` here?
Answer: Its logP is 3.48.

Question: With `CCCC(=O)OC1C(CO)OC(n2cnc3c(OC)ncnc32)C1OC(=O)CCC` (stereo not given) as the compound, how does the logP read?
Answer: Its logP is 2.9.

Question: For `COc1ncnc2c1ncn2[C@@H]1O[C@H](COC(=O)C(C)C)[C@@H](OC(=O)C(C)C)[C@@H]1O`, which logP is on record?
Answer: Its logP is 3.63.

Question: Which logP does the source give for `COc1ncnc2c1ncn2[C@@H]1O[C@H](COC(=O)C(C)C)[C@@H](O)[C@@H]1OC(=O)C(C)C` here?
Answer: Its logP is 2.7.

Question: Which logP does the source give for `COc1ncnc2c1ncn2[C@@H]1O[C@H](COS(C)(=O)=O)[C@@H](OS(C)(=O)=O)[C@@H]1OS(C)(=O)=O` here?
Answer: Its logP is 0.58.

Question: Which logP does the source give for `CCC(=O)OC[C@H]1O[C@@H](n2cnc3c(OC)ncnc32)[C@@H](O)[C@@H]1OC(=O)CC` here?
Answer: The logP was 2.7.

Question: Which logP does the source give for `COc1ncnc2c1ncn2[C@@H]1O[C@H](COC(C)=O)[C@@H](OC(C)=O)[C@@H]1OC(C)=O` here?
Answer: Its logP is 1.93.

Question: For `CCC(=O)O[C@H]1[C@H](OC(=O)CC)[C@@H](CO)O[C@H]1n1cnc2c(OC)ncnc21`, which logP is on record?
Answer: Its logP is 2.07.

Question: With `CCC(=O)OC[C@H]1O[C@@H](n2cnc3c(OC)ncnc32)[C@@H](OC(=O)CC)[C@@H]1OC(=O)CC` as the compound, how does the logP read?
Answer: Its logP is 2.75.

Question: For `COc1ncnc2c1ncn2[C@@H]1O[C@H](CO)[C@@H](OC(=O)COc2ccccc2)[C@@H]1OC(=O)COc1ccccc1`, which logP is on record?
Answer: Its logP is 3.4.

Question: Which logP does the source give for `COc1ncnc2c1ncn2[C@@H]1O[C@H](CO)[C@@H](O)[C@@H]1O` here?
Answer: The logP was 0.5.

Question: For `COc1ncnc2c1ncn2[C@@H]1O[C@H](COC(=O)c2ccccc2)[C@@H](O)[C@@H]1OC(=O)c1ccccc1`, which logP is on record?
Answer: The logP was 3.39.

Question: With `COc1ncnc2c1ncn2[C@@H]1O[C@H](COC(C)=O)[C@@H](OC(C)=O)[C@@H]1O` as the compound, how does the logP read?
Answer: Its logP is 1.75.

Question: For `CCCCC(=O)OC[C@H]1O[C@@H](n2cnc3c(OC)ncnc32)[C@@H](OC(=O)CCCC)[C@@H]1O`, which logP is on record?
Answer: The logP was 3.58.

Question: For `COc1ncnc2c1ncn2[C@@H]1O[C@H](COC(=O)Cc2ccccc2)[C@@H](OC(=O)Cc2ccccc2)[C@@H]1O`, which logP is on record?
Answer: The logP was 4.37.
